Test results as given in patent US20110178062A1, “INDOLE AND BENZOTHIOPHENE COMPOUNDS AS MODULATORS OF THE HISTAMINE H3 RECEPTOR” (priority 2007, published 2011).

Tests used:
Rat H3 = Rat H3 (Rattus norvegicus, UniProt Q9QYN8); assay: H3 Receptor Binding (Rat), rat brain membranes, N-[3H]-α-methylhistamine; conditions: rat brain without cerebellum; 0.8 nM N-[3H]-α-methylhistamine; average of results
Description: A rat brain without cerebellum (Zivic Laboratories Inc., Pittsburgh, Pa.) was homogenized in 50 mM Tris-HCl/5 mM EDTA and centrifuged at 1,000 rpm for 5 min. The supernatant was removed and recentrifuged at 15,000 rpm for 30 min. Pellets were rehomogenized in 50 mM Tris/5 mM EDTA (pH 7.4). Membranes were incubated with 0.8 nM N—[^3H]-α-methylhistamine plus/minus test compounds for 60 min at 25° C. and harvested by rapid filtration over GF/C glass fiber filters (pretreated with 0.3% polyethylenimine) followed by four washes with buffer. Nonspecific binding was defined in the presence of 100 μM histamine. Inhibitory concentration (responsible for 50% inhibition of maximal effect, IC50) values were determined by a single site curve-fitting program (GraphPad, San Diego, Calif.) and converted to Ki values based on a N—[^3H]-α-methylhistamine dissociation constant (Kd) of 0.8 nM. Data for compounds tested in this assay are presented in Table 2 as an average of the results obtained.

[1] = target: T1, cloned human H3 receptors, stably expressed in SK-N-MC cells (Homo sapiens, UniProt Q9Y5N1); assay: H3 Receptor Binding (Human); conditions: average of the results obtained
T1 construct: expressed in transfected cells; host or cells: SK-N-MC cells
Description: Binding of compounds to the cloned human H3 receptors, stably expressed in SK-N-MC cells, was performed as described by Barbier, A. J. et al. (Br. J. Pharmacol. 2004, 143(5), 649-661). Data for compounds tested in this assay are presented in Table 1 as an average of the results obtained.

human H3 receptor = target: T2, human H3 receptor (Homo sapiens, UniProt Q9Y5N1); assay: Cyclic AMP Accumulation, SK-N-MC reporter cells (human H3); assay type: cell-based; conditions: SK-N-MC cells expressing reporter construct and human H3 receptor; read-out: Human pA2 (converted)
T2 construct: expressed in transfected cells; host or cells: SK-N-MC cells
Excerpt: Sublines of SK-N-MC cells were created that expressed a reporter construct and either the human or rat H3 receptor. The pA2 values were obtained as described by Barbier et al. (2004). Data for compounds tested in these assays are presented in Table 3, as an average of the results obtained (NT=not tested).

T2 sequence (Q9Y5N1 whole entry): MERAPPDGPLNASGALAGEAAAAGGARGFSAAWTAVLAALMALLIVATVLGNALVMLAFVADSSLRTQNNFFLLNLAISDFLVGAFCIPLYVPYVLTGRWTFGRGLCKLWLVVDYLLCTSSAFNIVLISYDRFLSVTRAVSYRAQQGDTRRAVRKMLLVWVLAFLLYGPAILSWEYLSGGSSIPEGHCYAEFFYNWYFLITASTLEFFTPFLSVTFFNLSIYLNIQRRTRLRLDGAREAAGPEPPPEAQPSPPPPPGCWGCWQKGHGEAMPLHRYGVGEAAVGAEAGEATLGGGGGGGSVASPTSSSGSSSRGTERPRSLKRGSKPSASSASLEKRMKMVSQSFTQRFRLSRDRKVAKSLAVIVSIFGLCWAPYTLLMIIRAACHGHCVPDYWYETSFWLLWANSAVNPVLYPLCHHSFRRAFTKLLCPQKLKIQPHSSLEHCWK
T1 sequence (Q9Y5N1 whole entry): as above
Chain of Rat H3 (Q9QYN8 1-397 isoform Q9QYN8-3): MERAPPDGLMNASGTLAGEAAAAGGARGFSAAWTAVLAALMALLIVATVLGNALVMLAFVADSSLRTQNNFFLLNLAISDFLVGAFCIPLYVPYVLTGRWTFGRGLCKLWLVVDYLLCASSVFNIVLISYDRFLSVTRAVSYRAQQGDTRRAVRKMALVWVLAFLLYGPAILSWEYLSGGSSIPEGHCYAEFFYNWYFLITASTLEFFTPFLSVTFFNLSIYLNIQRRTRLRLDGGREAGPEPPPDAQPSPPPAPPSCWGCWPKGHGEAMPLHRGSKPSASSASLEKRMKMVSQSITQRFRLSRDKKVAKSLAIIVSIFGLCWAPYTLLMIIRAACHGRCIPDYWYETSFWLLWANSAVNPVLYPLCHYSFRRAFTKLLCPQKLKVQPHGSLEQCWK

SMILES | Ki (Rat H3) [nM] | Ki [1] [nM] | Kb (human H3 receptor) [nM]
O=C(c1ccc2c(CN3CCN(C4CCC4)CC3)c[nH]c2c1)N1CCCCC1 [Example 29, [3-(4-Cyclobutyl-piperazin-1-ylmethyl)-1H-indol-6-yl]-piperidin-1-yl-methanone] | 438 | 11 | –
CC(C)N1CCN(C(=O)c2ccc3c(CN4CCCC4)c[nH]c3c2)CC1 [Example 58, (4-Isopropyl-piperazin-1-yl)-(3-pyrrolidin-1-ylmethyl-1H-indol-6-yl)-methanone] | 2 | – | –
CC(C)N1CCN(C(=O)c2ccc3c(CN4CCN(c5ccccc5)CC4)c[nH]c3c2)CC1 [Example 45, (4-Isopropyl-piperazin-1-yl)-[3-(4-phenyl-piperazin-1-ylmethyl)-1H-indol-6-yl]-methanone] | – | 2 | 1.82
CC(C)N1CCN(C(=O)c2ccc3c(CN4CCCCC4)cn(S(C)(=O)=O)c3c2)CC1 [Example 25, (4-Isopropyl-piperazin-1-yl)-(1-methanesulfonyl-3-piperidin-1-ylmethyl-1H-indol-6-yl)-methanone] | – | 3 | 3.09
O=C(c1cccc2c(CN3CCOCC3)c[nH]c12)N1CCN(C2CCC2)CC1 [Example 21, (4-Cyclobutyl-piperazin-1-yl)-(3-morpholin-4-ylmethyl-1H-indol-7-yl)-methanone] | 19 | 5 | 1.1
Cn1cc(CN2CCOCC2)c2ccc(C(=O)N3CCN(C4CCC4)CC3)cc21 [Example 3, (4-Cyclobutyl-piperazin-1-yl)-(1-methyl-3-morpholin-4-ylmethyl-1H-indol-6-yl)-methanone] | – | 1 | 0.501
CC(C)N1CCN(C(=O)c2ccc3c(CN4CCCC(CO)C4)c[nH]c3c2)CC1 (centres unmarked) [Example 44, [3-(3-Hydroxymethyl-piperidin-1-ylmethyl)-1H-indol-6-yl]-(4-isopropyl-piperazin-1-yl)-methanone] | – | 2 | 1.07
O=C(c1cccc2[nH]cc(CN3CCN(C4CCC4)CC3)c12)N1CCCCC1 [Example 37, [3-(4-Cyclobutyl-piperazin-1-ylmethyl)-1H-indol-4-yl]-piperidin-1-yl-methanone] | – | 318 | –
O=C(NCc1ccncc1)c1ccc2c(CN3CCCCC3)c[nH]c2c1 [Example 16, 3-Piperidin-1-ylmethyl-1H-indole-6-carboxylic acid (pyridin-4-ylmethyl)-amide] | – | 327 | –
CC(C)N1CCN(C(=O)c2ccc3c(CN4CCC(O)(c5ccccc5)CC4)c[nH]c3c2)CC1 [Example 65, [3-(4-Hydroxy-4-phenyl-piperidin-1-ylmethyl)-1H-indol-6-yl]-(4-isopropyl-piperazin-1-yl)-methanone] | – | 1 | –
O=C(c1ccc2c(CN3CCN(C4CC4)CC3)c[nH]c2c1)N1CCCCC1 [Example 28, [3-(4-Cyclopropyl-piperazin-1-ylmethyl)-1H-indol-6-yl]-piperidin-1-yl-methanone] | – | 177 | –
CC(C)N1CCN(C(=O)c2ccc3scc(CN4CCCCC4)c3c2)CC1 [Example 102, (4-Isopropyl-piperazin-1-yl)-(3-piperidin-1-ylmethyl-benzo[b]thiophen-5-yl)-methanone] | 228 | 17 | –
CC(C)N1CCN(Cc2c[nH]c3cc(C(=O)N4CCCCC4)ccc23)CC1 [Example 27, [3-(4-Isopropyl-piperazin-1-ylmethyl)-1H-indol-6-yl]-piperidin-1-yl-methanone] | – | 28 | –
CC(C)N1CCCN(C(=O)c2ccc3[nH]cc(CN4CCCCC4)c3c2)CC1 [Example 34, (4-Isopropyl-[1,4]diazepan-1-yl)-(3-piperidin-1-ylmethyl-1H-indol-5-yl)-methanone] | 133 | 4 | –
O=C(c1ccc2[nH]cc(CN3CCOCC3)c2c1)N1CCN(C2CCC2)CC1 [Example 40, (4-Cyclobutyl-piperazin-1-yl)-(3-morpholin-4-ylmethyl-1H-indol-5-yl)-methanone] | – | 33 | –
O=C(c1ccc2c(CN3CCN(C4CCCC4)CC3)c[nH]c2c1)N1CCC(Cc2ccccc2)CC1 [Example 99, (4-Benzyl-piperidin-1-yl)-[3-(4-cyclopentyl-piperazin-1-ylmethyl)-1H-indol-6-yl]-methanone] | – | 28 | –
CC(C)N1CCN(C(=O)c2ccc3c(CN4CCN(C(=O)c5ccncc5)CC4)c[nH]c3c2)CC1 [Example 62, (4-Isopropyl-piperazin-1-yl)-{3-[4-(pyridine-4-carbonyl)-piperazin-1-ylmethyl]-1H-indol-6-yl}-methanone] | – | 7 | –

SMILES | Ki (Rat H3) [nM] | Ki [1] [nM] | Kb (human H3 receptor) [nM]
O=C(NCc1cccnc1)c1ccc2c(CN3CCOCC3)c[nH]c2c1 [Example 10, 3-Morpholin-4-ylmethyl-1H-indole-6-carboxylic acid (pyridin-3-ylmethyl)-amide] | – | 5010 | –
O=C(c1ccc2c(CN3CCN(C4CCCC4)CC3)c[nH]c2c1)N1CCC(c2ccccc2)CC1 [Example 86, [3-(4-Cyclopentyl-piperazin-ylmethyl)-1H-indol-6-yl]-(4-phenyl-piperidin-1-yl)-methanone] | – | 27 | –
CN(C)C1CCN(Cc2c[nH]c3cc(C(=O)N4CCCCCC4)ccc23)C1 (centres unmarked) [Example 92, Azepan-1-yl-[3-(3-dimethylamino-pyrrolidin-1-ylmethyl)-1H-indol-6-yl]-methanone] | – | 15 | –
CC(C)N1CCN(C(=O)c2ccc3[nH]cc(CN4CCCCC4)c3c2)CC1 [Example 32, (4-Isopropyl-piperazin-1-yl)-(3-piperidin-1-ylmethyl-1H-indol-5-yl)-methanone] | – | 34 | –
O=C(c1ccc2c(CN3CCOCC3)c[nH]c2c1)N1CCN(C2CCC2)CC1 [Example 6, (4-Cyclobutyl-piperazin-1-yl)-(3-morpholin-4-ylmethyl-1H-indol-6-yl)-methanone] | – | 1 | 0.155
CC(C)N1CCN(C(=O)c2ccc3c(CN4CCC(c5ccccc5)CC4)c[nH]c3c2)CC1 [Example 57, (4-Isopropyl-piperazin-1-yl)-[3-(4-phenyl-piperidin-1-ylmethyl)-1H-indol-6-yl]-methanone] | – | 1 | 1.17
CC(C)N1CCN(C(=O)c2cccc3c(CN4CCOCC4)c[nH]c23)CC1 [Example 20, (4-Isopropyl-piperazin-1-yl)-(3-morpholin-4-ylmethyl-1H-indol-7-yl)-methanone] | – | 10 | 8.13
CN(C)C1CCN(Cc2c[nH]c3cc(C(=O)N4CCC(Cc5ccccc5)CC4)ccc23)C1 (centres unmarked) [Example 101] | – | 9 | –
CC(C)N1CCN(C(=O)c2ccc3c(CN4CCN(Cc5ccccc5)CC4)c[nH]c3c2)CC1 [Example 51, [3-(4-Benzyl-piperazin-1-ylmethyl)-1H-indol-6-yl]-(4-isopropyl-piperazin-1-yl)-methanone] | – | 2 | –
CC(C)N1CCN(C(=O)c2ccc3c(CN4CCOCC4)cn(S(C)(=O)=O)c3c2)CC1 [Example 26, (4-Isopropyl-piperazin-1-yl)-(1-methanesulfonyl-3-morpholin-4-ylmethyl-1H-indol-6-yl)-methanone] | – | 18 | –
O=C(c1cccc2c(CN3CCN(C4CCC4)CC3)c[nH]c12)N1CCCCC1 [Example 36, [3-(4-Cyclobutyl-piperazin-1-ylmethyl)-1H-indol-7-yl]-piperidin-1-yl-methanone] | – | 81 | –
Cc1cccnc1CNC(=O)c1ccc2c(CN3CCOCC3)c[nH]c2c1 [Example 12, 3-Morpholin-4-ylmethyl-1H-indole-6-carboxylic acid (3-methyl-pyridin-2-ylmethyl)-amide] | – | 2000 | –
O=C(c1ccc2c(CN3CCN(C4CCC4)CC3)c[nH]c2c1)N1CCC(c2ccccc2)CC1 [Example 43, [3-(4-Cyclobutyl-piperazine-1-ylmethyl)-1H-indol-6-yl]-(4-phenyl-piperidin-1-yl)-methanone] | – | 8 | –
Cc1cccnc1CNC(=O)c1ccc2c(CN3CCCCC3)c[nH]c2c1 [Example 17, 3-Piperidin-1-ylmethyl-1H-indole-6-carboxylic acid (3-methyl-pyridin-2-ylmethyl)-amide] | – | 114 | –
O=C(c1cccc2[nH]cc(CN3CCCCC3)c12)N1CCN(C2CCC2)CC1 [Example 42, (4-Cyclobutyl-piperazin-1-yl)-(3-piperidin-1-ylmethyl-1H-indol-4-yl)-methanone] | – | 1500 | –
O=C(c1ccc2[nH]cc(CN3CCN(C4CCC4)CC3)c2c1)N1CCCCC1 [Example 38, [3-(4-Cyclobutyl-piperazin-1-ylmethyl)-1H-indol-5-yl]-piperidin-1-yl-methanone] | – | 427 | –
O=C(c1cccc2c(CN3CCCCC3)c[nH]c12)N1CCN(C2CCC2)CC1 [Example 23, (4-Cyclobutyl-piperazin-1-yl)-(3-piperidin-1-ylmethyl-1H-indol-7-yl)-methanone] | – | 2 | 0.575
